# Laboratory results published in ChEMBL document CHEMBL1201862, “PubChem BioAssay data set” (2004).
# Where “and” joins values, the source holds several entries; their conditions need not be identical. Identical values can stand only once.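 Grown in 96-well plates, cells were treated for 48 hours with each compound at five concentrations. Insufficient inhibition: endpoint recorded as highest concentration tested. At the GI50, growth is halved.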 Calls of active or inactive are those of the source. No stated cut-off is given here; in the data, active = GI50 up to about 1.1 µM and inactive = higher.
# Columns and labels:
# Test in all cases: NCI tumour cell line growth inhibition, 48 h
# A498 = tested on: A498
# BT-549 = tested on: BT-549
# CCRF-CEM = tested on: CCRF-CEM
# COLO 205 = tested on: COLO 205
# DU-145 = tested on: DU-145
# HCT-15 = tested on: HCT-15
# HL-60 = tested on: HL-60
# HOP-62 = tested on: HOP-62
# HOP-92 = tested on: HOP-92
# HT-29 = tested on: HT-29
# Hs-578T = tested on: Hs-578T
# KM12 = tested on: KM12
# NCI-H23 = tested on: NCI-H23
# OVCAR-3 = tested on: OVCAR-3
# SF-295 = tested on: SF-295
# SF-539 = tested on: SF-539
# SN12C = tested on: SN12C
# UO-31 = tested on: UO-31
# MDA-N = tested on: MDA-N
# T47D = tested on: T47D
Structure (SMILES),GI50 (A498),GI50 (BT-549),GI50 (CCRF-CEM),GI50 (COLO 205),GI50 (DU-145),GI50 (HCT-15) [µM],GI50 (HL-60),GI50 (HOP-62),GI50 (HOP-92),GI50 (HT-29),GI50 (Hs-578T),GI50 (KM12),GI50 (NCI-H23),GI50 (OVCAR-3),GI50 (SF-295),GI50 (SF-539),GI50 (SN12C),GI50 (UO-31),GI50 (MDA-N),GI50 (T47D)
COc1cccc(-c2c(-c3ccccc3)[nH]c(C)c2C(=O)ONC(=O)c2ccccc2)c1,15 µM (inactive),5.41 µM (inactive),3.21 µM (inactive),13.7 µM (inactive),2.59 µM (inactive),12.1,1.93 µM (inactive),2.72 µM (inactive),1.83 µM (inactive),10 µM (inactive),4.95 µM (inactive),13.7 µM (inactive),11.6 µM (inactive),6.38 µM (inactive),2.55 µM (inactive),6.76 µM (inactive),3.4 µM (inactive),0.128 µM (active),,
COC(=O)[C@@H]1C[C@H]2[C@H](c3ccccc3Br)[C@@H](OC(C)=O)[C@@H](OCc3ccccc3)ON2O1,,> 100 µM (inactive),49.4 µM (inactive),> 100 µM (inactive),> 100 µM (inactive),> 100,,> 100 µM (inactive),,> 100 µM (inactive),,> 100 µM (inactive),> 100 µM (inactive),19.6 µM (inactive),> 100 µM (inactive),> 100 µM (inactive),> 100 µM (inactive),> 100 µM (inactive),> 100 µM (inactive),> 100 µM (inactive)
COc1cc(-c2c(C(C)=O)c(-c3ccccc3)n(C3OC(COC(C)=O)C(OC(C)=O)C(OC(C)=O)C3OC(C)=O)c(=S)c2C#N)ccc1O (configuration not stated),> 100 µM (inactive),33.1 µM (inactive),58.3 µM (inactive),97.1 µM (inactive),55.3 µM (inactive) and 58.1 µM (inactive),> 100,,> 100 µM (inactive),36.6 µM (inactive),76.6 µM (inactive) and 76.9 µM (inactive),70.6 µM (inactive),71.6 µM (inactive) and 89.5 µM (inactive),72.8 µM (inactive),,> 100 µM (inactive),,> 100 µM (inactive),> 100 µM (inactive) and 55.1 µM (inactive),33 µM (inactive) and 49.8 µM (inactive),
C[C@]12CC[C@H]3[C@@H](CC=C4C[C@@H](O)CC[C@@]43C)[C@@H]1C/C(=C\c1cccnc1)[C@@H]2O,7.14 µM (inactive),13.5 µM (inactive),23.6 µM (inactive),> 100 µM (inactive),13.5 µM (inactive),38.1,,4.67 µM (inactive),11.9 µM (inactive),43.8 µM (inactive),6.21 µM (inactive),> 100 µM (inactive),13.1 µM (inactive),,2.55 µM (inactive),14 µM (inactive),9.44 µM (inactive),55.5 µM (inactive),> 100 µM (inactive),
Cc1ccc(S(=O)(=O)CC2(Br)CCc3ccccc3C2=O)cc1 (configuration not stated),25.8 µM (inactive),18.3 µM (inactive),,18.1 µM (inactive),74.8 µM (inactive),19.8,17.3 µM (inactive),39.4 µM (inactive),34.4 µM (inactive),20.8 µM (inactive),32.6 µM (inactive),41 µM (inactive),33.6 µM (inactive),45.3 µM (inactive),77.8 µM (inactive),33.7 µM (inactive),30.6 µM (inactive),14.8 µM (inactive),,
O=[N+]([O-])c1ccc2sc(/C=N/c3ccc(O)cc3)cc2c1,72.8 µM (inactive),22.3 µM (inactive),15.3 µM (inactive),38 µM (inactive),32.8 µM (inactive),32.4,18.9 µM (inactive),34.7 µM (inactive),32.4 µM (inactive),46.9 µM (inactive),18.9 µM (inactive),33.7 µM (inactive),27.9 µM (inactive),15.2 µM (inactive),42.3 µM (inactive),22 µM (inactive),30.1 µM (inactive),41 µM (inactive),27.3 µM (inactive),
CCc1n[nH]c(=O)n1/N=C/c1ccccc1O,,> 100 µM (inactive),> 100 µM (inactive),> 100 µM (inactive),> 100 µM (inactive),> 100,,> 100 µM (inactive),> 100 µM (inactive),,28 µM (inactive),> 100 µM (inactive),> 100 µM (inactive),> 100 µM (inactive),> 100 µM (inactive),> 100 µM (inactive),> 100 µM (inactive),> 100 µM (inactive),> 100 µM (inactive),
COc1ccc(C[C@H]2COC(=O)[C@@H]2Cc2ccccc2)cc1OC,> 100 µM (inactive),,> 100 µM (inactive),,> 100 µM (inactive),,,> 100 µM (inactive),,> 100 µM (inactive),> 100 µM (inactive),> 100 µM (inactive),> 100 µM (inactive),> 100 µM (inactive),> 100 µM (inactive),,> 100 µM (inactive),,> 100 µM (inactive),> 100 µM (inactive)
CC(=O)c1c(O)nnc(-c2ccc(Cl)cc2)c1-c1ccc(Cl)cc1,26.7 µM (inactive),,45.7 µM (inactive),29.2 µM (inactive),54.8 µM (inactive),24.2,25 µM (inactive),,52.7 µM (inactive),40.5 µM (inactive),53.1 µM (inactive),35.2 µM (inactive),69.3 µM (inactive),25.1 µM (inactive),46.1 µM (inactive),22.7 µM (inactive),22.3 µM (inactive),,33.7 µM (inactive),31.5 µM (inactive)
CCOC(=O)c1nc(SC)sc1NC(=O)c1ccc(OC)cc1,15.8 µM (inactive),,> 100 µM (inactive),28.8 µM (inactive),> 100 µM (inactive),> 100,> 100 µM (inactive),34.7 µM (inactive),> 100 µM (inactive),66.2 µM (inactive),> 100 µM (inactive),> 100 µM (inactive),> 100 µM (inactive),> 100 µM (inactive),> 100 µM (inactive),16.4 µM (inactive),37.9 µM (inactive),> 100 µM (inactive),> 100 µM (inactive),98.2 µM (inactive)
OCCN(CCO)c1ncnc2c1sc(=S)n2-c1ccccc1,46 µM (inactive),,> 100 µM (inactive),> 100 µM (inactive),,> 100,> 100 µM (inactive),> 100 µM (inactive),> 100 µM (inactive),> 100 µM (inactive),,> 100 µM (inactive),> 100 µM (inactive),> 100 µM (inactive),> 100 µM (inactive),> 100 µM (inactive),> 100 µM (inactive),> 100 µM (inactive),,
O=[N+]([O-])c1ccc(-c2nn3c(C45CC6CC(CC(C6)C4)C5)nnc3s2)c(Cl)c1,> 100 µM (inactive),,> 100 µM (inactive),> 100 µM (inactive),> 100 µM (inactive),> 100,> 100 µM (inactive),> 100 µM (inactive),> 100 µM (inactive),> 100 µM (inactive),> 100 µM (inactive),> 100 µM (inactive),> 100 µM (inactive),> 100 µM (inactive),> 100 µM (inactive),> 100 µM (inactive),> 100 µM (inactive),> 100 µM (inactive),> 100 µM (inactive),> 100 µM (inactive)
